According to patent US11819025B2, “Active compound combinations having insecticidal/acaricidal properties” (Bayer Aktiengesellschaft, priority 2017, dated 2023):
Like-named read-outs stand apart in the source and are kept apart here.

Columns and labels:
Assay type in all cases: in vivo
[1] = system: Tetranychus urticae; assay: Tetranychus urticae - spray test, OP-resistant (Example A, French bean leaf disks); settings: for pest or weed control at 1.2 g/ha: 1.2 g ai/ha
From the text: (§1) E is the efficacy expressed in % mortality of the untreated control using the mixture of A and B at m and n ppm respectively m and n g/ha, • then is
Tetranychus urticae—Spray Test OP-Resistant
Solvent: 78.0 parts by weight acetone • 1.5 parts by weight dimethylformamide
Emulsifier: alkylarylpolyglycol ether […]
French bean (Phaseolus vulgaris) leaf disks infected with all instars of the two spotted spidermite (Tetranychus urticae), are sprayed with a preparation of the active ingredient of the desired concentration.
After the specified period of time, mortality in % is determined. 100% means all spider mites have been killed and 0% means none of the spider mites have been killed. The mortality values determined thus are recalculated using the Colby-formula (see above).

[2] = system: Tetranychus urticae; assay: Tetranychus urticae - spray test, OP-resistant (Example B, infested bean plants); settings: single active ingredient, mortality
Procedure: as §1
Tetranychus urticae—Spray Test; OP-Resistant
(§2) Solvent: 7 parts by weight of dimethylformamide
Emulsifier: alkylaryl polyglycol ether
Further test concentrations are prepared by dilution with emulsifier containing water.
After the specified period of time mortality in % is determined. 100% means all the spider mites have been killed and 0% means none of the spider mites have been killed. The mortality values determined thus are recalculated using the Colby-formula (see above).

[3] = system: Meloidogyne incognita; assay: Meloidogyne incognita - test (Example D, soil drench, salad seeds, gall formation); settings: single active ingredient, reduction of gall formation
Procedure: The expected efficacy of a given combination of two compounds is calculated as follows (see Colby, S. R., “Calculating Synergistic and antagonistic Responses of Herbicide Combinations”, Weeds 15, pp. 20-22, 1967): • If • X is the efficacy expressed in % mortality of the untreated control for test compound A at a concentration of m ppm respectively m g/ha, • Y is the efficacy expressed in % mortality of the untreated control for test compound B at a concentration of n ppm respectively n g/ha,
as §1
[formula] • If the observed insecticidal efficacy of the combination is higher than the one calculated as “E”, then the combination of the two compounds is more than additive, i.e., there is a synergistic effect.
Meloidogyne incognita—Test
as §2
Emulsifier: 2.5 parts by weight of alkylarylpolyglycolether
To produce a suitable preparation of active compound, 1 part by weight of active compound is mixed with the stated amount of solvent and emulsifier and is diluted with water to the desired concentration. To produce a suitable preparation of a spore suspension the spores are diluted with emulsifier containing water to the desired concentration. In the calculation of the concentration the soil volume has to be included. […] Further test concentrations are prepared by dilution with water.
The compound solution is poured into pots filled with soil (loamy sand). A suspension containing eggs and larvae of the southern root-knot nematode (Meloidogyne incognita) is added, salad seeds are spread on the soil surface and covered with quartz sand. The salad seeds germinate and the seedlings grow. Galls develop on the roots.
After the specified period of time the nematicidal activity is determined on the basis of the percentage of gall formation. 100% means no galls were found; 0% means the number of galls found on the roots of the treated plants was equal to that in untreated control plants. The activity determined thus is recalculated using the Colby-formula (see above).

[4] = system: Meloidogyne incognita; assay: Meloidogyne incognita - test (Example C, sand, salad seeds, gall formation); settings: single active ingredient, reduction of gall formation
Procedure: Meloidogvne incognita—Test
Solvent: 125.0 parts by weight of acetone
To produce a suitable preparation of active compound, 1 part by weight of active compound is mixed with the stated amount of solvent, and the concentrate is diluted with water to the desired concentration.
To produce a suitable preparation of a spore suspension the spores are diluted with water to the desired concentration.
Vessels are filled with sand, a solution of the active ingredient, a suspension containing eggs and larvae of the southern root-knot nematode (Meloidogyne incognita) and salad seeds. The salad seeds germinate and the seedlings grow. Galls develop in the roots.
After the specified period of time nematicidal activity is determined on the basis of the percentage of gall formation. 100% means no galls were found and 0% means the number of galls found on the roots of the treated plants was equal to that in untreated control plants.

[5] = Tetranychus urticae, foliar, 144 h, single active ingredient, mortality, read-out: Efficacy in % after 6 days
[6] = Tetranychus urticae, foliar, 144 h, read-out: Efficacy in % after 6 days
[7] = Tetranychus urticae, foliar, 144 h, 0.5 g ai/ha, single active ingredient, mortality, read-out: Efficacy in % after 6 days
[8] = 0.5 g ai/ha, single active ingredient, mortality

Q: Which results are given for `Cc1cc(F)c(N=C2SCC(=O)N2CC(F)(F)F)cc1[S+]([O-])CC(F)(F)F` (centres unmarked) [Cpd of formula (I)]?
A: pest or weed control at 1.2 g/ha [1, 5]: 70%; Efficacy in % after 7 days ([2]; 0.2 ppm): 0%; Efficacy in % after 4 days ([2]; 0.4 ppm): 0%; Efficacy in % after 7 days ([2]; 0.4 ppm): 10%; Efficacy in % after 4 days ([2]; 0.8 ppm): 25%; Efficacy in % after 20 days ([3]; 10 ppm): 0%; Efficacy in % after 20 days ([3]; 20 ppm): 15%

Q: Which results are given for `CCCCCCCCCCCCC1=C(OC(C)=O)C(=O)c2ccccc2C1=O` [Acequinocyl, acequinocyl]?
A: Efficacy in % after 2 days ([1]; 1 g ai/ha, single active ingredient, mortality): 0%; pest or weed control at 1 g/ha ([1]; Tetranychus urticae, foliar, 144 h, 1 g ai/ha, single active ingredient, mortality, read-out: Efficacy in % after 6 days): 0%

Q: Which results are given for `COc1ccc(Cl)c(S(=O)(=O)NC(=O)c2cn3cc(C(F)(F)F)cc(Cl)c3n2)c1` [Fluazaindolizine]?
A: Efficacy in % after 14 days ([4]; 0.025 ppm): 0%; Efficacy in % after 20 days ([3]; 0.2 ppm): 0%; Efficacy in % after 20 days ([3]; 0.4 ppm): 40%

Q: With `Cc1nn(C)c(Oc2ccccc2)c1C=NOCc1ccc(C(=O)OC(C)(C)C)cc1` [Fenpyroximate, fenpyroximate] as the molecule, how does the pest or weed control at 0.2 g/ha [1, 6] read?
A: Its pest or weed control at 0.2 g/ha is 0%.

Q: For `O=S(=O)(CCC(F)=C(F)F)c1ncc(Cl)s1` [Fluensulfone], which “Efficacy in % after 14 days” value ([4]; 0.1 ppm) is on record?
A: Its value is 0%.

Q: And the “Efficacy in % after 14 days” value ([4]; 0.2 ppm)?
A: The value was 0%.

Q: And the “Efficacy in % after 20 days” value ([3]; 0.4 ppm)?
A: The value was 0%.

Q: Which pest or weed control at 0.5 g/ha [1, 7] does the source give for `CC(C)(C)c1ccc(CSc2cnn(C(C)(C)C)c(=O)c2Cl)cc1` [Pyridaben, pyridaben] here?
A: Its pest or weed control at 0.5 g/ha is 0%.

Q: For `c1ccc(-c2noc(-c3cccs3)n2)cc1` [Tioxazafen], which “Efficacy in % after 20 days” value ([3]; 1.25 ppm) is on record?
A: Its value is 0%.

Q: With `CC(C)c1cc(Oc2ccccc2)cc(C(C)C)c1NC(=S)NC(C)(C)C` [Diafenthiuron, diafenthiuron] as the molecule, how does the “Efficacy in % after 2 days” value [1, 8] read?
A: Its value is 0%.

Q: And the pest or weed control at 0.5 g/ha [1, 6]?
A: Its pest or weed control at 0.5 g/ha is 0%.

Q: What about the pest or weed control at 3 g/ha [1, 6] of the same molecule?
A: Its pest or weed control at 3 g/ha is 0%.

Q: What about the “Efficacy in % after 7 days” value ([2]; 3.2 ppm) of the same molecule?
A: Its value is 15%.

Q: What does the source list for `O=C(NCCc1ncc(C(F)(F)F)cc1Cl)c1ccccc1C(F)(F)F` [Fluopyram]?
A: Efficacy in % after 20 days ([3]; 0.04 ppm): 0%; Efficacy in % after 20 days ([3]; 0.08 ppm): 0%

Q: For `CCc1nn(C)c(C(=O)NCc2ccc(C(C)(C)C)cc2)c1Cl` [Tebufenpyrad, tebufenpyrad], which “Efficacy in % after 2 days” value [1, 8] is on record?
A: Its value is 0%.

Q: What about the pest or weed control at 0.5 g/ha [1, 7] of the same molecule?
A: The pest or weed control at 0.5 g/ha was 0%.

Q: With `COc1ccc(-c2ccccc2)cc1NNC(=O)OC(C)C` [Bifenazate] as the molecule, how does the pest or weed control at 0.25 g/ha ([1]; Tetranychus urticae, foliar, 144 h, 0.25 g ai/ha, single active ingredient, mortality, read-out: Efficacy in % after 6 days) read?
A: The pest or weed control at 0.25 g/ha was 0%.

Q: And the pest or weed control at 1.8 g/ha ([1]; Tetranychus urticae, foliar, 144 h, 1.8 g ai/ha, single active ingredient, mortality, read-out: Efficacy in % after 6 days)?
A: Its pest or weed control at 1.8 g/ha is 0%.

Q: And the “Efficacy in % after 7 days” value ([2]; 2 ppm)?
A: The value was 65%.

Q: Which results are given for `CC(C)(C)c1ccc(CCOc2ncnc3ccccc23)cc1` [Fenazaquin, fenazaquin]?
A: pest or weed control at 1.2 g/ha [1, 5]: 0%; pest or weed control at 2.4 g/ha ([1]; Tetranychus urticae, foliar, 144 h, 2.4 g ai/ha, single active ingredient, mortality, read-out: Efficacy in % after 6 days): 0%

Q: For `O=C(Nc1ccn(-c2c(F)cccc2F)n1)c1ccccc1C(F)(F)F` [Cpd of formula (IIb), N-[1-(2,6-difluorophenyl)-1H-pyrazol-3-yl]-2-(trifluoromethyl)benzamide], which “Efficacy in % after 14 days” value ([4]; 1.5 ppm) is on record?
A: Its value is 0%.

Q: And the “Efficacy in % after 20 days” value ([3]; 0.4 ppm)?
A: The value was 0%.

Q: `CNC(=O)Oc1cc(C)c(SC)c(C)c1` [Methiocarb, 4-methylthio-3,5-xylyl methylcarbamate] was tested. Which pest or weed control at 6 g/ha ([1]; Tetranychus urticae, foliar, 144 h, 6 g ai/ha, single active ingredient, mortality, read-out: Efficacy in % after 6 days) did it give?
A: The pest or weed control at 6 g/ha was 0%.

Q: And the pest or weed control at 12 g/ha ([1]; Tetranychus urticae, foliar, 144 h, 12 g ai/ha, single active ingredient, mortality, read-out: Efficacy in % after 6 days)?
A: Its pest or weed control at 12 g/ha is 0%.
